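Briefly, cells in 96-well plates were exposed to five compound concentrations for 48 h, and endpoints were estimated by linear interpolation. At the GI50, growth is halved.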 Calls of active or inactive are those of the source. Cut-off read from the data, not from the text of the source: active = GI50 up to about 1.1 µM and inactive = higher.
Key:
Assay in all cases: inhibition of tumour cell growth, NCI panel, 48 h
[1] = system: HL-60
[2] = system: HT-29
[3] = system: IGROV-1
[4] = system: UO-31
[5] = system: A498
[6] = system: K562
[7] = system: A549
[8] = system: SK-MEL-28
[9] = system: HOP-62
[10] = system: SNB-78
[11] = system: KM-20L2
[12] = system: OVCAR-5
[13] = system: M19-MEL
[14] = system: DMS-273
[15] = system: SNB-75
[16] = system: NCI-H522
[17] = system: HOP-18
[18] = system: HCC 2998
[19] = system: SK-MEL-5
[20] = system: CCRF-CEM
[21] = system: EKVX
[22] = system: RPMI-8226
[23] = system: OVCAR-4
[24] = system: SNB-19
[25] = system: 786-0
[26] = system: DMS-114
[27] = system: NCI-H460
[28] = system: HCT-116
[29] = system: OVCAR-8
[30] = system: RXF 393
[31] = system: MOLT-4
[32] = system: KM12
[33] = system: DLD-1
[34] = system: UACC-62
[35] = system: SF-268
[36] = system: SK-MEL-2
[37] = system: LOX IMVI
[38] = system: OVCAR-3
[39] = system: UACC-257
[40] = system: U-251
[41] = system: TK-10
[42] = system: Malme-3M
[43] = system: CAKI-1
[44] = system: M14
[45] = system: NCI-H23
[46] = system: LXFL 529
[47] = system: NCI-H226
[48] = system: SF-539
[49] = system: SW-620
[50] = system: SF-295
[51] = system: COLO 205
[52] = system: SK-OV-3
[53] = system: SR
[54] = system: SN12C
[55] = system: MDA-N
[56] = system: HCT-15
[57] = system: XF498
[58] = system: MDA-MB-231
[59] = system: NCI/ADR-RES
[60] = system: HOP-92
[61] = system: MDA-MB-435
[62] = system: DU-145
[63] = system: ACHN
[64] = system: MCF7
[65] = system: Hs-578T
[66] = system: PC-3
[67] = system: BT-549
[68] = system: T47D

CCO/C([O-])=C(\C(=O)c1ccc([N+](=O)[O-])cc1)[n+]1c(C)n(C)c2ccccc21
GI50 [1]: > 100 µM (inactive) | GI50 [2]: > 100 µM (inactive) | GI50 [3]: > 100 µM (inactive) | GI50 [4]: > 100 µM (inactive) | GI50 [5]: > 100 µM (inactive) | GI50 [6]: > 100 µM (inactive) | GI50 [7]: > 100 µM (inactive) | GI50 [8]: > 100 µM (inactive) | GI50 [9]: > 100 µM (inactive) | GI50 [10]: > 100 µM (inactive) | GI50 [11]: > 100 µM (inactive) | GI50 [12]: > 100 µM (inactive) | GI50 [13]: > 100 µM (inactive) | GI50 [14]: > 100 µM (inactive) | GI50 [15]: > 100 µM (inactive) | GI50 [16]: > 100 µM (inactive) | GI50 [17]: > 100 µM (inactive) | GI50 [18]: > 100 µM (inactive) | GI50 [19]: > 100 µM (inactive) | GI50 [20]: > 100 µM (inactive) | GI50 [21]: > 100 µM (inactive) | GI50 [22]: > 100 µM (inactive) | GI50 [23]: > 100 µM (inactive) | GI50 [24]: > 100 µM (inactive) | GI50 [25]: > 100 µM (inactive) | GI50 [26]: > 100 µM (inactive) | GI50 [27]: > 100 µM (inactive) | GI50 [28]: > 100 µM (inactive) | GI50 [29]: > 100 µM (inactive) | GI50 [30]: > 100 µM (inactive) | GI50 [31]: > 100 µM (inactive) | GI50 [32]: > 100 µM (inactive) | GI50 [33]: > 100 µM (inactive) | GI50 [34]: > 100 µM (inactive) | GI50 [35]: > 100 µM (inactive) | GI50 [36]: > 100 µM (inactive) | GI50 [37]: > 100 µM (inactive) | GI50 [38]: > 100 µM (inactive) | GI50 [39]: > 100 µM (inactive) | GI50 [40]: > 100 µM (inactive) | GI50 [41]: > 100 µM (inactive) | GI50 [42]: > 100 µM (inactive) | GI50 [43]: > 100 µM (inactive) | GI50 [44]: > 100 µM (inactive) | GI50 [45]: > 100 µM (inactive) | GI50 [46]: > 100 µM (inactive) | GI50 [47]: > 100 µM (inactive) | GI50 [48]: > 100 µM (inactive) | GI50 [49]: > 100 µM (inactive) | GI50 [50]: > 100 µM (inactive) | GI50 [51]: > 100 µM (inactive) | GI50 [52]: > 100 µM (inactive)

CC1(C)O[C@H]2OC3CCC(=O)CC3(O)[C@H]2O1 (stereo partly specified)
GI50 [53]: > 100 µM (inactive) | GI50 [1]: > 100 µM (inactive) | GI50 [2]: > 100 µM (inactive) | GI50 [3]: > 100 µM (inactive) | GI50 [4]: > 100 µM (inactive) | GI50 [5]: > 100 µM (inactive) | GI50 [6]: > 100 µM (inactive) | GI50 [54]: > 100 µM (inactive) | GI50 [7]: > 100 µM (inactive) | GI50 [8]: > 100 µM (inactive) | GI50 [55]: > 100 µM (inactive) | GI50 [9]: > 100 µM (inactive) | GI50 [10]: > 100 µM (inactive) | GI50 [12]: > 100 µM (inactive) | GI50 [56]: > 100 µM | GI50 [13]: > 100 µM (inactive) | GI50 [15]: > 100 µM (inactive) | GI50 [16]: > 100 µM (inactive) | GI50 [57]: 0.507 µM (active) | GI50 [58]: > 100 µM (inactive) | GI50 [18]: > 100 µM (inactive) | GI50 [19]: > 100 µM (inactive) | GI50 [20]: > 100 µM (inactive) | GI50 [59]: > 100 µM (inactive) | GI50 [21]: > 100 µM (inactive) | GI50 [22]: > 100 µM (inactive) | GI50 [23]: > 100 µM (inactive) | GI50 [24]: > 100 µM (inactive) | GI50 [25]: > 100 µM (inactive) | GI50 [26]: > 100 µM (inactive) | GI50 [27]: > 100 µM (inactive) | GI50 [28]: > 100 µM (inactive) | GI50 [60]: > 73.3 µM (inactive) | GI50 [29]: > 100 µM (inactive) | GI50 [30]: > 100 µM (inactive) | GI50 [31]: > 100 µM (inactive) | GI50 [32]: > 100 µM (inactive) | GI50 [33]: > 100 µM (inactive) | GI50 [61]: > 100 µM (inactive) | GI50 [34]: > 100 µM (inactive) | GI50 [62]: > 100 µM (inactive) | GI50 [35]: > 100 µM (inactive) | GI50 [36]: > 100 µM (inactive) | GI50 [37]: > 100 µM (inactive) | GI50 [38]: > 100 µM (inactive) | GI50 [39]: > 100 µM (inactive) | GI50 [40]: > 100 µM (inactive) | GI50 [41]: > 100 µM (inactive) | GI50 [63]: > 100 µM (inactive) | GI50 [42]: > 51.6 µM (inactive) | GI50 [43]: > 100 µM (inactive) | GI50 [64]: > 100 µM (inactive) | GI50 [65]: > 100 µM (inactive) | GI50 [66]: > 100 µM (inactive) | GI50 [44]: > 100 µM (inactive) | GI50 [45]: > 100 µM (inactive) | GI50 [47]: > 100 µM (inactive) | GI50 [67]: > 100 µM (inactive) | GI50 [48]: > 100 µM (inactive) | GI50 [49]: > 100 µM (inactive) | GI50 [68]: > 100 µM (inactive) | GI50 [50]: > 100 µM (inactive) | GI50 [51]: > 100 µM (inactive) | GI50 [52]: > 100 µM (inactive)

Source: ChEMBL document CHEMBL1201862, “PubChem BioAssay data set” (2004)
